#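 Tested at 5 concentrations; 48 h exposure; 96-well plates; endpoints linearly interpolated, else capped at highest concentration. GI50 = concentration required for 50% inhibition of growth.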 Active and inactive are the calls of the source. No stated cut-off is given here; in the data, active = GI50 up to about 1.1 µM and inactive = higher.
# Tests used:
# Experiment in all cases: inhibition of tumour cell growth, NCI panel, 48 h
# EKVX = test system: EKVX
# HCT-15 = test system: HCT-15
# IGROV-1 = test system: IGROV-1
# SW-620 = test system: SW-620
# TK-10 = test system: TK-10
# SR = test system: SR
# SK-MEL-5 = test system: SK-MEL-5
# MCF7 = test system: MCF7
# UACC-257 = test system: UACC-257
# MDA-MB-435 = test system: MDA-MB-435
# HCT-116 = test system: HCT-116
# DU-145 = test system: DU-145
# HOP-92 = test system: HOP-92
# SK-OV-3 = test system: SK-OV-3
# OVCAR-5 = test system: OVCAR-5
# HL-60 = test system: HL-60
# T47D = test system: T47D
# A549 = test system: A549
# NCI-H460 = test system: NCI-H460
# HT-29 = test system: HT-29
# SF-268 = test system: SF-268
# MDA-MB-231 = test system: MDA-MB-231
# SF-539 = test system: SF-539
# M14 = test system: M14
# NCI-H23 = test system: NCI-H23
# MOLT-4 = test system: MOLT-4
# NCI-H522 = test system: NCI-H522
# U-251 = test system: U-251
# ACHN = test system: ACHN
# COLO 205 = test system: COLO 205
# KM12 = test system: KM12
# UACC-62 = test system: UACC-62
# NCI/ADR-RES = test system: NCI/ADR-RES
# SNB-75 = test system: SNB-75
# MDA-N = test system: MDA-N
# UO-31 = test system: UO-31
# SNB-19 = test system: SNB-19
# K562 = test system: K562
# Hs-578T = test system: Hs-578T
# SK-MEL-2 = test system: SK-MEL-2
# 786-0 = test system: 786-0
# CAKI-1 = test system: CAKI-1
# RPMI-8226 = test system: RPMI-8226
# PC-3 = test system: PC-3
# Malme-3M = test system: Malme-3M
# BT-549 = test system: BT-549
# SF-295 = test system: SF-295
# RXF 393 = test system: RXF 393
# SN12C = test system: SN12C
# OVCAR-8 = test system: OVCAR-8
# NCI-H226 = test system: NCI-H226
# OVCAR-4 = test system: OVCAR-4
# OVCAR-3 = test system: OVCAR-3
# CCRF-CEM = test system: CCRF-CEM
# HOP-62 = test system: HOP-62
# HCC 2998 = test system: HCC 2998
# SK-MEL-28 = test system: SK-MEL-28
# LOX IMVI = test system: LOX IMVI
# A498 = test system: A498
compound,measurement,setting,value
CCCC(CCC(=O)O)(CCC(=O)O)[N+](=O)[O-],GI50,EKVX,> 100 µM (inactive)
same,GI50,HCT-15,> 100 µM
same,GI50,IGROV-1,> 100 µM (inactive)
same,GI50,SW-620,> 100 µM (inactive)
same,GI50,TK-10,> 100 µM (inactive)
same,GI50,SR,> 100 µM (inactive)
same,GI50,SK-MEL-5,> 100 µM (inactive)
same,GI50,MCF7,> 100 µM (inactive)
same,GI50,UACC-257,> 100 µM (inactive)
same,GI50,MDA-MB-435,> 100 µM (inactive)
same,GI50,HCT-116,> 100 µM (inactive)
same,GI50,DU-145,> 100 µM (inactive)
same,GI50,HOP-92,> 100 µM (inactive)
same,GI50,SK-OV-3,> 100 µM (inactive)
same,GI50,OVCAR-5,> 100 µM (inactive)
same,GI50,HL-60,> 100 µM (inactive)
same,GI50,T47D,> 100 µM (inactive)
same,GI50,A549,> 100 µM (inactive)
same,GI50,NCI-H460,> 100 µM (inactive)
same,GI50,HT-29,> 100 µM (inactive)
same,GI50,SF-268,> 100 µM (inactive)
same,GI50,MDA-MB-231,> 100 µM (inactive)
same,GI50,SF-539,> 100 µM (inactive)
same,GI50,M14,> 100 µM (inactive)
same,GI50,NCI-H23,> 100 µM (inactive)
same,GI50,MOLT-4,> 100 µM (inactive)
same,GI50,NCI-H522,> 100 µM (inactive)
same,GI50,U-251,> 100 µM (inactive)
same,GI50,ACHN,> 100 µM (inactive)
same,GI50,COLO 205,> 100 µM (inactive)
same,GI50,KM12,> 100 µM (inactive)
same,GI50,UACC-62,> 100 µM (inactive)
same,GI50,NCI/ADR-RES,> 100 µM (inactive)
same,GI50,SNB-75,> 100 µM (inactive)
same,GI50,MDA-N,> 100 µM (inactive)
same,GI50,UO-31,> 100 µM (inactive)
same,GI50,SNB-19,> 100 µM (inactive)
same,GI50,K562,> 100 µM (inactive)
same,GI50,Hs-578T,> 100 µM (inactive)
same,GI50,SK-MEL-2,> 100 µM (inactive)
same,GI50,786-0,> 100 µM (inactive)
same,GI50,CAKI-1,> 100 µM (inactive)
same,GI50,RPMI-8226,> 100 µM (inactive)
same,GI50,PC-3,> 100 µM (inactive)
same,GI50,Malme-3M,> 100 µM (inactive)
same,GI50,BT-549,> 100 µM (inactive)
same,GI50,SF-295,> 100 µM (inactive)
same,GI50,RXF 393,> 100 µM (inactive)
same,GI50,SN12C,> 100 µM (inactive)
same,GI50,OVCAR-8,> 100 µM (inactive)
same,GI50,NCI-H226,> 100 µM (inactive)
CSc1ccc(/C=C2\N=C(c3ccccc3)N(c3nc4cc(C)c(C)cc4s3)C2=O)cc1,GI50,EKVX,24.9 µM (inactive)
same,GI50,HCT-15,40.7 µM
same,GI50,IGROV-1,15.8 µM (inactive)
same,GI50,SW-620,17.9 µM (inactive)
same,GI50,TK-10,94.4 µM (inactive)
same,GI50,SR,25 µM (inactive)
same,GI50,SK-MEL-5,21.4 µM (inactive)
same,GI50,MCF7,15.3 µM (inactive)
same,GI50,UACC-257,43.3 µM (inactive)
same,GI50,OVCAR-4,26.5 µM (inactive)
same,GI50,MDA-MB-435,12.9 µM (inactive)
same,GI50,HCT-116,18.3 µM (inactive)
same,GI50,DU-145,49.7 µM (inactive)
same,GI50,HOP-92,13.5 µM (inactive)
same,GI50,OVCAR-3,22.8 µM (inactive)
same,GI50,SK-OV-3,46.5 µM (inactive)
same,GI50,CCRF-CEM,9.35 µM (inactive)
same,GI50,OVCAR-5,26.2 µM (inactive)
same,GI50,HL-60,20.9 µM (inactive)
same,GI50,T47D,44.8 µM (inactive)
same,GI50,A549,30.1 µM (inactive)
same,GI50,NCI-H460,36.3 µM (inactive)
same,GI50,HT-29,22.2 µM (inactive)
same,GI50,SF-268,34.8 µM (inactive)
same,GI50,MDA-MB-231,24.6 µM (inactive)
same,GI50,SF-539,21.3 µM (inactive)
same,GI50,M14,26.4 µM (inactive)
same,GI50,MOLT-4,61.9 µM (inactive)
same,GI50,HOP-62,23.6 µM (inactive)
same,GI50,U-251,19.2 µM (inactive)
same,GI50,HCC 2998,32.1 µM (inactive)
same,GI50,ACHN,24.9 µM (inactive)
same,GI50,COLO 205,35.2 µM (inactive)
same,GI50,KM12,27.4 µM (inactive)
same,GI50,UACC-62,28.1 µM (inactive)
same,GI50,NCI/ADR-RES,31.3 µM (inactive)
same,GI50,SNB-75,28.8 µM (inactive)
same,GI50,MDA-N,13.6 µM (inactive)
same,GI50,UO-31,28.9 µM (inactive)
same,GI50,SNB-19,30.2 µM (inactive)
same,GI50,K562,43.4 µM (inactive)
same,GI50,Hs-578T,28.4 µM (inactive)
same,GI50,SK-MEL-2,16 µM (inactive)
same,GI50,786-0,21.9 µM (inactive)
same,GI50,CAKI-1,53 µM (inactive)
same,GI50,RPMI-8226,52.1 µM (inactive)
same,GI50,SK-MEL-28,49.7 µM (inactive)
same,GI50,LOX IMVI,19.8 µM (inactive)
same,GI50,PC-3,22.4 µM (inactive)
same,GI50,BT-549,28.2 µM (inactive)
same,GI50,SF-295,34.1 µM (inactive)
same,GI50,RXF 393,25 µM (inactive)
same,GI50,SN12C,27 µM (inactive)
same,GI50,OVCAR-8,20.3 µM (inactive)
OCCNc1ncnc2[nH]cnc12,GI50,EKVX,> 100 µM (inactive)
same,GI50,HCT-15,> 100 µM
same,GI50,IGROV-1,> 100 µM (inactive)
same,GI50,SW-620,> 100 µM (inactive)
same,GI50,TK-10,> 100 µM (inactive)
same,GI50,SK-MEL-5,> 100 µM (inactive)
same,GI50,MCF7,> 100 µM (inactive)
same,GI50,A498,> 100 µM (inactive)
same,GI50,UACC-257,> 100 µM (inactive)
same,GI50,OVCAR-4,> 100 µM (inactive)
same,GI50,MDA-MB-435,> 100 µM (inactive)
same,GI50,HCT-116,> 100 µM (inactive)
same,GI50,DU-145,> 100 µM (inactive)
same,GI50,HOP-92,> 100 µM (inactive)
same,GI50,OVCAR-3,> 100 µM (inactive)
same,GI50,SK-OV-3,> 100 µM (inactive)
same,GI50,OVCAR-5,> 100 µM (inactive)
same,GI50,HL-60,> 100 µM (inactive)
same,GI50,T47D,> 100 µM (inactive)
same,GI50,A549,> 100 µM (inactive)
same,GI50,NCI-H460,> 100 µM (inactive)
same,GI50,HT-29,> 100 µM (inactive)
same,GI50,SF-268,> 100 µM (inactive)
same,GI50,MDA-MB-231,> 100 µM (inactive)
same,GI50,M14,> 100 µM (inactive)
same,GI50,NCI-H23,> 100 µM (inactive)
same,GI50,MOLT-4,> 100 µM (inactive)
same,GI50,HOP-62,> 100 µM (inactive)
same,GI50,NCI-H522,> 100 µM (inactive)
same,GI50,U-251,> 100 µM (inactive)
same,GI50,HCC 2998,> 100 µM (inactive)
same,GI50,ACHN,> 100 µM (inactive)
same,GI50,COLO 205,> 100 µM (inactive)
same,GI50,KM12,> 100 µM (inactive)
same,GI50,UACC-62,> 100 µM (inactive)
same,GI50,NCI/ADR-RES,> 100 µM (inactive)
same,GI50,SNB-75,0.296 µM (active)
same,GI50,MDA-N,> 100 µM (inactive)
same,GI50,UO-31,> 100 µM (inactive)
same,GI50,SNB-19,> 100 µM (inactive)
same,GI50,K562,> 100 µM (inactive)
same,GI50,Hs-578T,> 100 µM (inactive)
same,GI50,SK-MEL-2,> 100 µM (inactive)
same,GI50,786-0,> 100 µM (inactive)
same,GI50,CAKI-1,> 100 µM (inactive)
same,GI50,RPMI-8226,> 100 µM (inactive)
same,GI50,SK-MEL-28,> 100 µM (inactive)
same,GI50,LOX IMVI,> 100 µM (inactive)
same,GI50,PC-3,> 100 µM (inactive)
same,GI50,Malme-3M,> 100 µM (inactive)
same,GI50,BT-549,> 100 µM (inactive)
same,GI50,SF-295,> 100 µM (inactive)
same,GI50,RXF 393,> 100 µM (inactive)
same,GI50,SN12C,> 100 µM (inactive)
same,GI50,OVCAR-8,> 100 µM (inactive)
same,GI50,NCI-H226,> 100 µM (inactive)

# Source: ChEMBL document CHEMBL1201862, “PubChem BioAssay data set” (2004)
